From patent US10344025B2, “GLS1 inhibitors for treating disease” (Board of Regents, The University of Texas System, priority 2014, dated 2019)
One block for each compound: values may come before it.

What was measured:
[1] = molecular target: purified recombinant human GAC (GLS1) (Homo sapiens (Human), UniProt O94925); assay: GLS1 Enzymatic Activity Assay (dual-coupled enzymatic assay, resorufin/Amplex UltraRed readout); format: biochemical;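 further: glutamate from GAC coupled via glutamate oxidase and peroxidase to resorufin, read as fluorescence (ex 530, em 590 nm) kinetically or at 20 min, four-parameter logistic IC50 fit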
Sequence of purified recombinant human GAC (GLS1) (O94925 other isoform, or with tags, fused parts or gaps): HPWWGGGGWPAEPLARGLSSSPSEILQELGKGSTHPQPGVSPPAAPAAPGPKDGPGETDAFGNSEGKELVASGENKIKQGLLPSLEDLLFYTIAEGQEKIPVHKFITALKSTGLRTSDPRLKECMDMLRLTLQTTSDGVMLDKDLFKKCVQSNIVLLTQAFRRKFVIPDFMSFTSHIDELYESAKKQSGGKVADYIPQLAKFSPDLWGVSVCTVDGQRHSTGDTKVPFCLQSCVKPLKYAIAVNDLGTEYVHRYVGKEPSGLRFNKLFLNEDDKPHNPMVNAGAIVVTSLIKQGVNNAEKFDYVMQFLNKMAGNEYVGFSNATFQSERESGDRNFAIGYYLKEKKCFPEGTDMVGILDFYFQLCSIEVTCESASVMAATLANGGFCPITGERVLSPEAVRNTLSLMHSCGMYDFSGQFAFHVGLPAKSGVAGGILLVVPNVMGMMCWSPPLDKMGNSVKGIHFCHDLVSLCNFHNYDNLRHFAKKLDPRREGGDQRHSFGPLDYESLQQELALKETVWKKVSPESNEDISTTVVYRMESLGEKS

[2] = tested on: A549 cells; assay: Proliferation Assay (A549 viability, Cell Titer Fluor, 72 hours); format: cell-based; conditions: Homo sapiens, A549, 72 h
Outline: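 Cell Titer Fluor fluorescence after 72 h compound treatment (0.5% DMSO, 37 °C, 5% CO2) of A549 cells plated 24 h earlier at 1000/well. Four-parameter logistic fitting gave IC50.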

SMILES: CNC(=O)c1cn(CCCCc2ccc(NC(=O)Cc3cc(C(C)C(F)(F)F)ccn3)nn2)nn1 (stereo not shown) [Example 258, N-methyl-1-(4-(6-(2-(4-(1,1,1-trifluoropropan-2-yl)pyridin-2-yl)acetamido)pyridazin-3-yl)butyl)-1H-1,2,3-triazole-4-carboxamide]
- IC50 [1]: < 100 nM
- EC50 [2]: < 100 nM

SMILES: O=C(Cc1cc(OC(F)(F)F)ccc1F)Nc1ccc(CCCCn2cc(C(=O)NCc3cccnc3)nn2)nn1 [Example 586, 1-(4-(6-(2-(2-fluoro-5-(trifluoromethoxy)phenyl)acetamido)pyridazin-3-yl)butyl)-N-(pyridin-3-ylmethyl)-1H-1,2,3-triazole-4-carboxamide]
- IC50 [1]: < 100 nM
- EC50 [2]: < 100 nM

SMILES: O=C(NCc1cccc(OC(F)(F)F)c1)c1cn(CCCCn2cc(C(=O)NCc3cncc(N4CC(F)(F)C4)c3)nn2)nn1 [Example 146, N-{[5-(3,3-difluoroazetidin-1-yl)pyridin-3-yl]methyl}-1-{4-[4-({[3-(trifluoromethoxy)phenyl]methyl}carbamoyl)-1H-1,2,3-triazol-1-yl]butyl}-1H-1,2,3-triazole-4-carboxamide]
- IC50 [1]: < 100 nM
- EC50 [2]: < 100 nM

SMILES: O=C(Cc1cc(OC(F)(F)F)ccc1F)Nc1cn(CC(F)CCn2cc(C(=O)NCc3cccc(OC(F)(F)F)c3)nn2)nn1 (stereo not shown) [Example 379, 1-[3-fluoro-4-(4-{2-[2-fluoro-5-(trifluoromethoxy)phenyl]acetamido}-1H-1,2,3-triazol-1-yl)butyl]-N-{[3-(trifluoromethoxy)phenyl]methyl}-1H-1,2,3-triazole-4-carboxamide]
- IC50 [1]: < 100 nM
- EC50 [2]: < 100 nM

SMILES: CNC(=O)c1nnc(CCC(F)Cn2cc(C(=O)NCc3ccccc3)nn2)s1 (stereo not shown) [Example 556, 5-{4-[4-(benzylcarbamoyl)-1H-1,2,3-triazol-1-yl]-3-fluorobutyl}-N-methyl-1,3,4-thiadiazole-2-carboxamide]
- IC50 [1]: 100 to 500 nM
- EC50 [2]: 500 to 5000 nM

SMILES: O=C(Cc1cccc(OC(F)(F)F)c1)Nc1cn(CCCCn2cc(C(=O)NCC3CC3)nn2)nn1 [Example 301, N-(cyclopropylmethyl)-1-[4-(4-{2-[3-(trifluoromethoxy)phenyl]acetamido}-1H-1,2,3-triazol-1-yl)butyl]-1H-1,2,3-triazole-4-carboxamide]
- IC50 [1]: 100 to 500 nM
- EC50 [2]: 500 to 5000 nM

SMILES: CNC(=O)c1cn(CCCCc2ccc(NC(=O)Cc3cccc(C4=CCOCC4)c3)nn2)nn1 [Example 199, 1-(4-(6-(2-(3-(3,6-dihydro-2H-pyran-4-yl)phenyl)acetamido)pyridazin-3-yl)butyl)-N-methyl-1H-1,2,3-triazole-4-carboxamide]
- IC50 [1]: < 100 nM
- EC50 [2]: 100 to 500 nM

SMILES: CNC(=O)c1cn(CCCCc2ccc(NC(=O)Cc3cccc(Cl)c3F)nn2)nn1 [Example 180, 1-(4-{6-[2-(3-chloro-2-fluorophenyl)acetamido]pyridazin-3-yl}butyl)-N-methyl-1H-1,2,3-triazole-4-carboxamide]
- IC50 [1]: < 100 nM
- EC50 [2]: 100 to 500 nM

SMILES: O=C(Cc1cc(OC(F)(F)F)ccc1F)Nc1cn(CCC(F)Cn2cc(C(=O)NCc3ccccn3)nn2)nn1 (stereo not shown) [Example 398, 1-[2-fluoro-4-(4-{2-[2-fluoro-5-(trifluoromethoxy)phenyl]acetamido}-1H-1,2,3-triazol-1-yl)butyl]-N-(pyridin-2-ylmethyl)-1H-1,2,3-triazole-4-carboxamide]
- IC50 [1]: < 100 nM
- EC50 [2]: < 100 nM

SMILES: CC1(C)Oc2ccc(CNC(=O)c3cn(CCCCn4cc(C(=O)NCc5cncc(C(F)(F)F)c5)nn4)nn3)cc2O1 [Example 136, 1-[4-(4-{[(2,2-dimethyl-2H-1,3-benzodioxol-5-yl)methyl]carbamoyl}-1H-1,2,3-triazol-1-yl)butyl]-N-{[5-(trifluoromethyl)pyridin-3-yl]methyl}-1H-1,2,3-triazole-4-carboxamide]
- IC50 [1]: < 100 nM
- EC50 [2]: < 100 nM

SMILES: O=C(Cc1cccc(OC(F)(F)F)c1)Nc1cn(CCCCn2cc(C(=O)NCc3cc(C(F)(F)F)ccn3)nn2)nn1 [Example 414, 1-[4-(4-{2-[3-(trifluoromethoxy)phenyl]acetamido}-1H-1,2,3-triazol-1-yl)butyl]-N-{[4-(trifluoromethyl)pyridin-2-yl]methyl}-1H-1,2,3-triazole-4-carboxamide]
- IC50 [1]: < 100 nM
- EC50 [2]: < 100 nM

SMILES: Cc1ccc(CNC(=O)c2cn(CC(F)CCc3nnc(NC(=O)Cc4cccc(OC(F)(F)F)c4)s3)nn2)cn1 (stereo not shown) [Example 559, 1-[2-fluoro-4-(5-{2-[3-(trifluoromethoxy)phenyl]acetamido}-1,3,4-thiadiazol-2-yl)butyl]-N-[(6-methylpyridin-3-yl)methyl]-1H-1,2,3-triazole-4-carboxamide]
- IC50 [1]: < 100 nM
- EC50 [2]: 100 to 500 nM

SMILES: O=C(NCc1cccc(OC(F)(F)F)c1)c1cn(CCCCc2nnc(C(=O)NCC3COC3)s2)nn1 [Example 50, N-(oxetan-3-ylmethyl)-5-{4-[4-({[3-(trifluoromethoxy)phenyl]methyl}carbamoyl)-1H-1,2,3-triazol-1-yl]butyl}-1,3,4-thiadiazole-2-carboxamide]
- IC50 [1]: 100 to 500 nM
- EC50 [2]: 500 to 5000 nM

SMILES: COCCOc1cccc(CNC(=O)c2cn(CCCCn3cc(C(=O)NCc4cc(C(F)(F)F)ccn4)nn3)nn2)c1 [Example 125, 1-{4-[4-({[3-(2-methoxyethoxy)phenyl]methyl}carbamoyl)-1H-1,2,3-triazol-1-yl]butyl}-N-{[4-(trifluoromethyl)pyridin-2-yl]methyl}-1H-1,2,3-triazole-4-carboxamide]
- IC50 [1]: < 100 nM
- EC50 [2]: 100 to 500 nM

SMILES: O=C(NCc1cncc(C(F)(F)F)c1)c1cn(CC(F)CCc2nnc(C(=O)NCc3ccc(C(F)(F)F)cn3)s2)nn1 (stereo not shown) [Example 488, 5-{3-fluoro-4-[4-({[5-(trifluoromethyl)pyridin-3-yl]methyl}carbamoyl)-1H-1,2,3-triazol-1-yl]butyl}-N-{[5-(trifluoromethyl)pyridin-2-yl]methyl}-1,3,4-thiadiazole-2-carboxamide]
- IC50 [1]: < 100 nM
- EC50 [2]: < 100 nM

SMILES: O=C(NCc1cc(C(F)(F)F)ccn1)c1cn(CCCCc2ccc(NC(=O)C3CC3)nn2)nn1 [Example 177, 1-[4-(6-cyclopropaneamidopyridazin-3-yl)butyl]-N-{[4-(trifluoromethyl)pyridin-2-yl]methyl}-1H-1,2,3-triazole-4-carboxamide]
- IC50 [1]: < 100 nM
- EC50 [2]: 100 to 500 nM

SMILES: O=C(Cc1cccc(OC(F)(F)F)c1)Nc1cn(CCCCn2cc(C(=O)NCc3ccccn3)nn2)nn1 [Example 279, N-(pyridin-2-ylmethyl)-1-[4-(4-{2-[3-(trifluoromethoxy)phenyl]acetamido}-1H-1,2,3-triazol-1-yl)butyl]-1H-1,2,3-triazole-4-carboxamide]
- IC50 [1]: < 100 nM
- EC50 [2]: 100 to 500 nM

SMILES: COc1ncccc1CNC(=O)c1cn(CC(F)CCc2nnc(NC(=O)Cc3cc(OC(F)(F)F)ccc3F)s2)nn1 (stereo not shown) [Example 223, 1-(2-fluoro-4-(5-(2-(2-fluoro-5-(trifluoromethoxy)phenyl)acetamido)-1,3,4-thiadiazol-2-yl)butyl)-N-((2-methoxypyridin-3-yl)methyl)-1H-1,2,3-triazole-4-carboxamide]
- IC50 [1]: < 100 nM
- EC50 [2]: < 100 nM

Second part, the compound after the results:

- IC50 [1]: 100 to 500 nM
- EC50 [2]: 100 to 500 nM
SMILES: O=C(NCc1cncc(C(F)(F)F)c1)c1cn(CC(F)CCc2nnc(C(=O)NCC(F)(F)F)s2)nn1 (stereo not shown) [Example 500, 5-{3-fluoro-4-[4-({[5-(trifluoromethyl)pyridin-3-yl]methyl}carbamoyl)-1H-1,2,3-triazol-1-yl]butyl}-N-(2,2,2-trifluoroethyl)-1,3,4-thiadiazole-2-carboxamide]

- IC50 [1]: < 100 nM
- EC50 [2]: < 100 nM
SMILES: O=C(Cc1cc(OC(F)(F)F)ccc1F)Nc1nnc(CCC(F)Cn2cc(C(=O)NCc3ccccn3)nn2)s1 (stereo not shown) [Example 204, 1-(2-fluoro-4-(5-(2-(2-fluoro-5-(trifluoromethoxy)phenyl)acetamido)-1,3,4-thiadiazol-2-yl)butyl)-N-(pyridin-2-ylmethyl)-1H-1,2,3-triazole-4-carboxamide]

- IC50 [1]: 100 to 500 nM
- EC50 [2]: > 5000 nM
SMILES: Cc1ccc(CC(=O)Nc2cn(CC(F)CCn3cc(C(=O)NCc4ccccn4)nn3)nn2)cn1 (stereo not shown) [Example 344, 1-(3-fluoro-4-{4-[2-(6-methylpyridin-3-yl)acetamido]-1H-1,2,3-triazol-1-yl}butyl)-N-(pyridin-2-ylmethyl)-1H-1,2,3-triazole-4-carboxamide]

- IC50 [1]: 100 to 500 nM
- EC50 [2]: 100 to 500 nM
SMILES: O=C(Cc1cccc(OC(F)(F)F)c1)Nc1nnc(CCCCn2cc(C(=O)NCCO)nn2)s1 [Example 17, N-(2-hydroxyethyl)-1-[4-(5-{2-[3-(trifluoromethoxy)phenyl]acetamido}-1,3,4-thiadiazol-2-yl)butyl]-1H-1,2,3-triazole-4-carboxamide]

- IC50 [1]: < 100 nM
- EC50 [2]: 500 to 5000 nM
SMILES: O=C(Cc1cccc(OC(F)(F)F)c1)Nc1nnc(CCC(F)Cn2cc(C(=O)NCC3COC3)nn2)s1 (stereo not shown) [Example 558, 1-[2-fluoro-4-(5-{2-[3-(trifluoromethoxy)phenyl]acetamido}-1,3,4-thiadiazol-2-yl)butyl]-N-(oxetan-3-ylmethyl)-1H-1,2,3-triazole-4-carboxamide]

- IC50 [1]: < 100 nM
- EC50 [2]: < 100 nM
SMILES: O=C(NCc1cccc(OC(F)(F)F)c1)c1cn(CCCCc2nnc(C(=O)NCc3cncc(C(F)(F)F)c3)s2)nn1 [Example 76, 5-{4-[4-({[3-(trifluoromethoxy)phenyl]methyl}carbamoyl)-1H-1,2,3-triazol-1-yl]butyl}-N-{[5-(trifluoromethyl)pyridin-3-yl]methyl}-1,3,4-thiadiazole-2-carboxamide]

- IC50 [1]: 100 to 500 nM
- EC50 [2]: 500 to 5000 nM
SMILES: Cc1ccc(CNC(=O)c2cn(CCCCn3cc(NC(=O)Cc4cccnc4)nn3)nn2)cn1 [Example 315, N-[(6-methylpyridin-3-yl)methyl]-1-(4-{4-[2-(pyridin-3-yl)acetamido]-1H-1,2,3-triazol-1-yl}butyl)-1H-1,2,3-triazole-4-carboxamide]

- IC50 [1]: 100 to 500 nM
- EC50 [2]: 100 to 500 nM
SMILES: O=C(NCc1cccc(OC(F)(F)F)c1)c1cn(CCCCn2cc(C(=O)NCC3CCCCO3)nn2)nn1 (stereo not shown) [Example 118, N-(oxan-2-ylmethyl)-1-{4-[4-({[3-(trifluoromethoxy)phenyl]methyl}carbamoyl)-1H-1,2,3-triazol-1-yl]butyl}-1H-1,2,3-triazole-4-carboxamide]
